The assay relates to HL-60 cell. As to the kind of experiment: Vitamin D3 antagonist effect: suppression of HL-60 cell differentiation (NBT-reducing activity) induced by 1α,25-dihydroxyvitamin D3. The class given is cell-based. Particulars: simultaneous treatment with 1α,25-dihydroxyvitamin D3 1×10^−8 M; compound 1×10^−7 to 3×10^−6 M; 4 days; read-out: IC50 (suppression of NBT-reducing activity induction). An excerpt: (1) HL-60 cell line which had been purchased from a cell bank (Japanese Cancer Research Resource Bank, Cell No: JCRB0085) was used. The cell line was stored as a frozen storage stock to prevent cell characteristic changes attributable to successive cultivations. Prior to the initiation of experiments, the cells were defrosted and successive culturing was stared. For the experiments, cells whose successive culturing was from one month to about a half year were used. The successive culturing was carried out by centrifugally collecting cells which were in the state of suspension culture, and diluting the collected cell concentrate with a fresh culture medium at a ratio of about 1/100 (1-2×10^4 cells/ml). As the culture medium, an RPMI-1640 medium containing 10% fetal bovine serum was used.
(2) The cells which were under successive culturing in the above process (1) were centrifugally collected, and they were dispersed in a culture medium at the cell concentration of 2×10^4 cells/ml. […]
(3) As the parameter of differentiation inducing effect on HL-60 cells, the induction of nitro blue tetrazolium (henceforth, NBT)-reducing activity was used. The NBT-reducing activity was determined according to the following procedure. […] After air drying, it was stained with Kernechrot, and the ratio of the positive cells of NBT reduction activity was determined under an optical microscope. […]

Take `C=C1C(=CC=C2CCCC3(C)C2CCC3C(C)CC2CC(C)(O)C(=O)N2CCc2ccccc2)CC(O)CC1O` (stereo not drawn) [Compound No. 61a, 1α,25-dihydroxyvitamin D3-26,23-lactam-N-(2-phenethyl)]: the IC50 is under 0.1 µM.

In general, IC50 refers to the concentration that inhibits the measured activity by half.

These data come from patent publication US7524980B2, “Vitamin D3 lactam derivative” (Teijin Pharma Limited, priority 2003, dated 2009).
